In patent US20260258021A1, “MONOFLUORINATED COUMARIN FLUOROPHORES AND USES THEREOF” (Ohio State Innovation Foundation, priority 2023, published 2026):
“And” between values parts separate entries of the source, which are not always exact repeats. Equal entries are not always repeated. Where two headings read alike, the source gives them in different places. Marks after values point to notes of the source that are not given here. One block for each compound: values may come before it.

How the values were obtained:
[1] = Absorbance and fluorescence spectroscopy of coumarin amides (λmax, molar extinction coefficient, quantum yield); assay type: physicochemical; conditions: for ε405 nm (molar extinction coefficient): 405 nm, 10% DMSO; for ε405 nm (molar extinction coefficient) / Φ (quantum yield): PBS; for Φ (quantum yield) / Abs. λmax / Em. λmax: 1% DMSO; for Φ (quantum yield): relative to 30; for Abs. λmax / Em. λmax: aqueous PBS
Description: FIG. […] FIG. 4B depicts the determination of molar extinction coefficients (ε405 nm) of 26-28 as previously described in J. Am. Chem. Soc. […] The integrated fluorescence intensity (Ex. 405 nm, Em. 420-700 nm) was plotted against the maximum absorbance of the sample at the concentration studied (100 nM-6.25 nM) as extrapolated from absorbance measurements at higher concentrations. The slope determined by linear least squares (zero intercept) is proportional to the quantum yield. Spectra were acquired with a BMG LabTech ClarioStar Plus microtiterplate reader.

physchem = conditions: aqueous buffers of varied pH
[2] = literature; cited from earlier work
[3] = system: microtubules of living HeLa cells; conditions: for Kd: read-out: cellular Kd
[4] = cited from earlier work; for ε405 nm (molar extinction coefficient): 405 nm, PBS, 10% DMSO, previously described; for Φ (quantum yield): pH 7.4, 1% DMSO, based on a previously reported PB-biotin amide
purified microtubules = conditions: literature; cited from earlier work
HEK293T cells = assay: Cytotoxicity by propidium iodide staining in the FPCBA with DDR1-expressing cells; assay type: cell-based; conditions: living HEK293T cells, FPCBA competition experiments, [6FC-Dasatinib]=1 μM
Description: FIGS. 6A and 6B depict a fluorescent probe cellular binding assay (FPCBA) with 6FC-Dasatanib and native DDR1 kinase (IRES-mVenus). (FIG. 6A) Binding of 6FC-Dasatanib to native DDR1 expressed in living HEK293T cells by flow cytometry (2 h, 37° C.). (FIG. 6B) Competition experiments against native DDR1 in living HEK293T cells with the kinase inhibitors ponatinib and dasatinib by flow cytometry. [6FC-Dasatinib]=1 μM.
The previously reported FPCBA approach (Yin, Y. et al. J Am. Chem. Soc. 2024, 146 (1), 187-200) was used to analyze binding of small molecules to native full length DDR1 kinase overexpressed in living HEK293T cells (IRES-mVenus vector) by flow cytometry.

HeLa cells = conditions: 3 h, 37° C., absence of verapamil
[5] = living HeLa cells, 3 h, 37° C., absence of verapamil
[6] = living HeLa cells, 3 h, 37° C., presence of verapamil (100 μM)

ε405 nm (molar extinction coefficient) ([1]; pH 7.4): 25,000 (7.4) M^−1 cm^−1
Φ (quantum yield) ([1]; pH 7.4): 0.73
Abs. λmax ([1]; pH 7.4): 400 nm
Em. λmax ([1]; pH 7.4): 449 nm
pKa (physchem): 6.9
Compound: CCCCCCNC(=O)c1cc2c(F)cc(O)cc2oc1=O [Compound 26, 5-Fluoro-N-hexyl-7-hydroxy-2-oxo-2H-chromene-3-carboxamide]

ε405 nm (molar extinction coefficient) ([1]; pH 7.4): 28,000 (7.4) M^−1 cm^−1
Φ (quantum yield) ([1]; pH 7.4): 0.69
Abs. λmax ([1]; pH 7.4): 402 nm
Em. λmax ([1]; pH 7.4): 457 nm
pKa (physchem): 6
Compound: CCCCCCNC(=O)c1cc2ccc(O)c(F)c2oc1=O [Compound 28, 8-Fluoro-N-hexyl-7-hydroxy-2-oxo-2H-chromene-3-carboxamide]

Compound: O=C(O)c1cc2cc(F)c(O)c(F)c2oc1=O [Compound 2, Pacific Blue]
pKa of the phenol [2]: 4.7

Compound: CC(=O)O[C@H]1C(=O)[C@]2(C)[C@@H](OC(=O)CCCNC(=O)c3cc4ccc(O)c(F)c4oc3=O)C[C@H]3OC[C@@]3(OC(C)=O)[C@H]2[C@H](OC(=O)c2ccccc2)[C@]2(O)C[C@H](OC(=O)[C@H](O)[C@@H](NC(=O)c3ccccc3)c3ccccc3)C(C)=C1C2(C)C [Compound 10, (2aR,4S,4aS,6R,9S,11S,12S,12bS)-9-(((2R,3S)-3-Benzamido-2-hydroxy-3-phenylpropanoyl)oxy)-12-(benzoyloxy)-4-((4-(8-fluoro-7-hydroxy-2-oxo-2H-chromene-3-carboxamido)butanoyl)oxy)-11-hydroxy-4a,8,13,13-tetramethyl-5-oxo-3,4,4a,5,6,9,10,11,12,12a-decahydro-1H-7,11-methanocyclodeca[3,4]benzo[1,2-b]oxete-6,12b(2aH)-diyl diacetate]
Kd [3, 5]: 3500 nM
Kd [3, 6]: 230 nM

Compound: CC(=O)O[C@H]1C(=O)[C@]2(C)[C@@H](OC(=O)CCCNC(=O)c3cc4c(F)cc(O)cc4oc3=O)C[C@H]3OC[C@@]3(OC(C)=O)[C@H]2[C@H](OC(=O)c2ccccc2)[C@]2(O)C[C@H](OC(=O)[C@H](O)[C@@H](NC(=O)c3ccccc3)c3ccccc3)C(C)=C1C2(C)C [Compound 8, (2aR,4S,4aS,6R,9S,11S,12S,12bS)-9-(((2R,3S)-3-benzamido-2-hydroxy-3-phenylpropanoyl)oxy)-12-(benzoyloxy)-4-((4-(5-fluoro-7-hydroxy-2-oxo-2H-chromene-3-carboxamido)butanoyl)oxy)-11-hydroxy-4a,8,13,13-tetramethyl-5-oxo-3,4,4a,5,6,9,10,11,12,12a-decahydro-1H-7,11-methanocyclodeca[3,4]benzo[1,2-b]oxete-6,12b(2aH)-diyl diacetate]
S/B (maximal signal-to-background, fold change) ([3]; 0.4 μM probe, absence of verapamil): 7 fold
cellular Kd [3, 5]: low affinity prevented accurate determination
Kd [3, 6]: 150 nM

Abs. λmax ([1]; pH 7.4): 403 nm
Em. λmax ([1]; pH 7.4): 447 nm
pKa (physchem): 4.1
Compound: CCCCCCNC(=O)c1cc2cc(F)c(O)c(F)c2oc1=O [Compound 30, 6,8-Difluoro-N-hexyl-7-hydroxy-2-oxo-2H-chromene-3-carboxamide, reference compound]
ε405 nm (molar extinction coefficient) ([4]; pH 7.4): 29,000 (7.4) M^−1 cm^−1
Φ (quantum yield) [4]: 0.74
Φ (quantum yield) ([4]; listed as PB-hexanamide (30)): 0.74^‡

Φ (quantum yield) ([1]; pH 7.4): 0.35
Φ (quantum yield) ([1]; pH 10): 0.62
Abs. λmax ([1]; pH 7.4): 401 nm
Em. λmax ([1]; pH 7.4): 447 nm
pKa (physchem): 7.3
Compound: CCCCCCNC(=O)c1cc2ccc(O)cc2oc1=O [Compound 29, N-Hexyl-7-hydroxy-2-oxo-2H-chromene-3-carboxamide, reference compound]
ε405 nm (molar extinction coefficient) ([4]; pH 10): 22,000 (10) M^−1 cm^−1

Compound: CC(=O)O[C@H]1C(=O)[C@@]2(C)[C@H]([C@H](OC(=O)c3ccccc3)[C@]3(O)C[C@H](OC(=O)[C@H](O)[C@@H](NC(=O)c4ccccc4)c4ccccc4)C(C)=C1C3(C)C)[C@]1(OC(C)=O)CO[C@@H]1C[C@@H]2O [paclitaxel]
Ki (purified microtubules): 19 nM and 27 nM and 31 nM

Compound: CC(=O)O[C@H]1C(=O)[C@]2(C)[C@@H](OC(=O)CCCNC(=O)c3cc4cc(F)c(O)cc4oc3=O)C[C@H]3OC[C@@]3(OC(C)=O)[C@H]2[C@H](OC(=O)c2ccccc2)[C@]2(O)C[C@H](OC(=O)[C@H](O)[C@@H](NC(=O)c3ccccc3)c3ccccc3)C(C)=C1C2(C)C [Compound 9, (2aR,4S,4aS,6R,9S,11S,12S,12bS)-9-(((2R,3S)-3-benzamido-2-hydroxy-3-phenylpropanoyl)oxy)-12-(benzoyloxy)-4-((4-(6-fluoro-7-hydroxy-2-oxo-2H-chromene-3-carboxamido)butanoyl)oxy)-11-hydroxy-4a,8,13,13-tetramethyl-5-oxo-3,4,4a,5,6,9,10,11,12,12a-decahydro-1H-7,11-methanocyclodeca[3,4]benzo[1,2-b]oxete-6,12b(2aH)-diyl diacetate]
Kd [3, 5]: 2400 nM
Kd [3, 6]: 150 nM

ε405 nm (molar extinction coefficient) ([1]; pH 7.4): 37,000 M^−1 cm^−1
Φ (quantum yield) ([1]; pH 7.4): 0.84
Abs. λmax ([1]; pH 7.4): 401 nm
Em. λmax ([1]; pH 7.4): 451 nm
Brightness (product of molar extinction coefficient and quantum yield) relative to PB-hexanamide (30) ([1]; pH 7.4): 145%
pKa (physchem): 6.5
Compound: CCCCCCNC(=O)c1cc2cc(F)c(O)cc2oc1=O [Compound 27, 6-Fluoro-N-hexyl-7-hydroxy-2-oxo-2H-chromene-3-carboxamide]
ε405 nm (molar extinction coefficient) ([1]; pH 7.4, listed as 6FC-hexanamide (27)): 37,000 M^−1 cm^−1 and 37,000 (7.4) M^−1 cm^−1

Compound: COC(=O)c1cc2cc(F)c(O)c(F)c2oc1=O [PB methyl ester]
pKa of the phenol [2]: 3.7

Compound: Cc1nc(Nc2ncc(C(=O)Nc3c(C)cccc3Cl)s2)cc(N2CCN(CCOCCNC(=O)c3cc4cc(F)c(O)cc4oc3=O)CC2)n1 [6FC-Dasatinib, N-(2-chloro-6-methylphenyl)-2-((6-(4-(2-(2-(6-fluoro-7-hydroxy-2-oxo-2H-chromene-3-carboxamido)ethoxy)ethyl)piperazin-1-yl)-2-methylpyrimidin-4-yl)amino)thiazole-5-carboxamide]
Cytotoxicity (propidium iodide staining) (HEK293T cells): No cytotoxicity was observed

Compound: O=C(O)c1cc2ccc(O)cc2oc1=O [Compound 1, 7-hydroxycoumarin-3-carboxylic acid]
pKa of the phenol [2]: 7.0-7.5

Compound: (2aR,4S,4aS,6R,9S,11S,12S,12bS)-9-(((2R,3S)-3-benzamido-2-hydroxy-3-phenylpropanoyl)oxy)-12-(benzoyloxy)-11-hydroxy-4-((4-(7-hydroxy-2-oxo-2H-chromene-3-carboxamido)butanoyl)oxy)-4a,8,13,13-tetramethyl-5-oxo-3,4,4a,5,6,9,10,11,12,12a-decahydro-1H-7,11-methanocyclodeca[3,4]benzo[1,2-b]oxete-6,12b(2aH)-diyldiacetate [Compound 6]
Cellular uptake (HeLa cells): high cellular uptake
